In test [1] the target is Casein kinase I isoform alpha (Homo sapiens, UniProt P48729).
In test [2] the target is Cyclin-dependent kinase 3 (Homo sapiens, UniProt Q00526).
For test [3], the target named is T1, Phosphorylase b kinase gamma catalytic chain, liver/testis isoform (Homo sapiens, UniProt P15735).
T1 sequence (P15735 whole entry): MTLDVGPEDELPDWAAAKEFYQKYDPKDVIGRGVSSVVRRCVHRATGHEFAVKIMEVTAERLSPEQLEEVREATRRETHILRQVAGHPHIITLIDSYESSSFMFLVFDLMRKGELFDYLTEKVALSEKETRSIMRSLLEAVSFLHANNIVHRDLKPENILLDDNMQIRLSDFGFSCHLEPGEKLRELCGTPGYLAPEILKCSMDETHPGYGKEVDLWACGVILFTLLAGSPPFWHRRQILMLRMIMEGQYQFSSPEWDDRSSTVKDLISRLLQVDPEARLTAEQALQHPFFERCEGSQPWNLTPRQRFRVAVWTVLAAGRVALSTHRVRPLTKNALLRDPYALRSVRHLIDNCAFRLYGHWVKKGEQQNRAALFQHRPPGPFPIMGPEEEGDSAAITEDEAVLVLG

In test [4] the target is Ribosomal protein S6 kinase beta-1 (Homo sapiens, UniProt P23443).
The target of test [5] is Fibroblast growth factor receptor 1 (Homo sapiens, UniProt P11362).
Test [6] has as its target T2, AarF domain-containing protein kinase 1 (Homo sapiens, UniProt Q86TW2).
T2 sequence (Q86TW2 whole entry): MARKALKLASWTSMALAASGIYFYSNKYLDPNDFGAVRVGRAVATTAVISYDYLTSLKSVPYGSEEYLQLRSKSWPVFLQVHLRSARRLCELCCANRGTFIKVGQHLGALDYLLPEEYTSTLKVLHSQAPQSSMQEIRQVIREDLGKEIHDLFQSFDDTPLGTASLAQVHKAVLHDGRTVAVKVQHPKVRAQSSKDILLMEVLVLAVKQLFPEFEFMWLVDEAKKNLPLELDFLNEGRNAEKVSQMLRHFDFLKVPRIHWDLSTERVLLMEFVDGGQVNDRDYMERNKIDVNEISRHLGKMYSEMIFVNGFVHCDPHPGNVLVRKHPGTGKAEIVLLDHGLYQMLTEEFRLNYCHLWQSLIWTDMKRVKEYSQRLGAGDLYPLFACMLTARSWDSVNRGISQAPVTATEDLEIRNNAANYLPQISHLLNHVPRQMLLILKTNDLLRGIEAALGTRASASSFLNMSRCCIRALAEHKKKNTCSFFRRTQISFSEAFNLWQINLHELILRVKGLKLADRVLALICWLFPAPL

The target of the next test is T3, Ephrin type-A receptor 1 (Homo sapiens, UniProt P21709).
T3 sequence (P21709 whole entry): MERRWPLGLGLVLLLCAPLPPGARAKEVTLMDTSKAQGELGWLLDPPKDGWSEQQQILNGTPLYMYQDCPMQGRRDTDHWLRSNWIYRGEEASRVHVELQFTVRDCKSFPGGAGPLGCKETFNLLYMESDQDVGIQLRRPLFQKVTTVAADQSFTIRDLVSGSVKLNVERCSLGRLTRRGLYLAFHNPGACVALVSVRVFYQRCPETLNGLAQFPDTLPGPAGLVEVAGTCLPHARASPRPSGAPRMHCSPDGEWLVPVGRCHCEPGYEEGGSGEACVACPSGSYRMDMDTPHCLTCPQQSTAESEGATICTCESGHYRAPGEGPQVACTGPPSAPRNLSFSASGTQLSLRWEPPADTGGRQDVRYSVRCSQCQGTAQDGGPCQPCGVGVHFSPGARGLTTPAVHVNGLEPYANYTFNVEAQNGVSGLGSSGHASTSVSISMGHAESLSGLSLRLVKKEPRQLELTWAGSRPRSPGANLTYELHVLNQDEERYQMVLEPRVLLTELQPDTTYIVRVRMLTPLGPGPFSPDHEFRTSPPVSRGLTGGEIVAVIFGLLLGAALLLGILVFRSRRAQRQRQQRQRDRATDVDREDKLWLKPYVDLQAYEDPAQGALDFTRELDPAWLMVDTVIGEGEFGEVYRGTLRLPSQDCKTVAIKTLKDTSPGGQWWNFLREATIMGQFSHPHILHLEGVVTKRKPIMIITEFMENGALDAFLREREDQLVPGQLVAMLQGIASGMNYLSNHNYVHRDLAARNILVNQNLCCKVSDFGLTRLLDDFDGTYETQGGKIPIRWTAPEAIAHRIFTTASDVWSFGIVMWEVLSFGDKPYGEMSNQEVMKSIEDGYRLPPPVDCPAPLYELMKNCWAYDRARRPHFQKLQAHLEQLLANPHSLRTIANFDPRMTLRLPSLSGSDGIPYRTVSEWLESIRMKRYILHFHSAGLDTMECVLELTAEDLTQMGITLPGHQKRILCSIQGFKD

The target in test [7] is DNA topoisomerase 2-alpha (Homo sapiens, UniProt P11388).

The source of these data is ChEMBL document CHEMBL3991601, “The target landscape of clinical kinase drugs” (Science, 2017).

The structures appear in SMILES notation. Activity calls are given as the source filed them. For most assays here, no stated cut-off is given here; in the data, actives have a measured Kd and inactives only a lower limit.

Casein kinase I isoform alpha, sequence (P48729 whole entry, canonical isoform): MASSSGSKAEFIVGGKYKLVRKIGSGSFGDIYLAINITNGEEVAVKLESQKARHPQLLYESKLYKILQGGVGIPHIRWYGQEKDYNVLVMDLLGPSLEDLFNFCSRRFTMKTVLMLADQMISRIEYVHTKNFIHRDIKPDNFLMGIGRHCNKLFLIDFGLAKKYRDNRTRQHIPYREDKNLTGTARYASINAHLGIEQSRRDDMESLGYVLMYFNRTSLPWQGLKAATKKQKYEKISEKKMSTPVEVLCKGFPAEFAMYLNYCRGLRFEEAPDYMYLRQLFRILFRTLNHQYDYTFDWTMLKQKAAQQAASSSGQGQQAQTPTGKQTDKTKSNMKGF
Fibroblast growth factor receptor 1, sequence (P11362 whole entry, the tested form may be a part): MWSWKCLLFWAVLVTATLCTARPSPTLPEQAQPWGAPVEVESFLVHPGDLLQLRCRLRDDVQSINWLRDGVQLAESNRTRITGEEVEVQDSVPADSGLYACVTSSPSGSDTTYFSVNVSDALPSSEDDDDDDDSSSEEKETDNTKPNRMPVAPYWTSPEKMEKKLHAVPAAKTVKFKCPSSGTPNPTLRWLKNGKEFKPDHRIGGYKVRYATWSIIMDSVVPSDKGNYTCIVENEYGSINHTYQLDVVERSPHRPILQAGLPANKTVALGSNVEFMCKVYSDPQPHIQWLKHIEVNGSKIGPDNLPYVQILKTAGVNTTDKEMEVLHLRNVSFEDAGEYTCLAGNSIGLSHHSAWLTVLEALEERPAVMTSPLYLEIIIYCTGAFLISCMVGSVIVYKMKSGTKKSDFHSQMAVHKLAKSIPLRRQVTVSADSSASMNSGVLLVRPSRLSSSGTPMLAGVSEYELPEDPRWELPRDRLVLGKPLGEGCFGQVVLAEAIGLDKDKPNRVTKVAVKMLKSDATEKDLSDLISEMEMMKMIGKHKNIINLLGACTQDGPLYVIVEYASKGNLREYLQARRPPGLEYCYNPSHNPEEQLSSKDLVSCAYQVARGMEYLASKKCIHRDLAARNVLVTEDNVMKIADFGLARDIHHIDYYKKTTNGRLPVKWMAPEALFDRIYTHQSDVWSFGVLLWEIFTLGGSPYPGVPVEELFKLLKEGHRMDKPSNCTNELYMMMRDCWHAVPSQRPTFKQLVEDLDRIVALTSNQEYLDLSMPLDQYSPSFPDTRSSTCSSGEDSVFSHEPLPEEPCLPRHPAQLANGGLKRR
Ribosomal protein S6 kinase beta-1, sequence (P23443 whole entry): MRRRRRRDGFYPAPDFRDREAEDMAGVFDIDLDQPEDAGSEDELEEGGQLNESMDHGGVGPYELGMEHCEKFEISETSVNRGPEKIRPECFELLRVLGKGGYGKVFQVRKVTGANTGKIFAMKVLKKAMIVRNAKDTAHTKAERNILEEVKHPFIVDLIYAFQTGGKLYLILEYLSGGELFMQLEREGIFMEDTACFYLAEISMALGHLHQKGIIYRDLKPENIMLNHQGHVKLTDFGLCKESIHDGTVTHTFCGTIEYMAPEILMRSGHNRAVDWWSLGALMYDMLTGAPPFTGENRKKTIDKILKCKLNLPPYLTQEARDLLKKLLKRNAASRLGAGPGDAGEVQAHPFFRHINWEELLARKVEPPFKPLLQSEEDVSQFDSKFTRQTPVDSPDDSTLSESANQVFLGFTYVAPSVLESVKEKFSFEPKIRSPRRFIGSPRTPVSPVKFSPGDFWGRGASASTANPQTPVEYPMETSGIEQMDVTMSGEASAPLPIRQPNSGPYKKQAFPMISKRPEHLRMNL
Cyclin-dependent kinase 3, sequence (Q00526 whole entry, canonical isoform): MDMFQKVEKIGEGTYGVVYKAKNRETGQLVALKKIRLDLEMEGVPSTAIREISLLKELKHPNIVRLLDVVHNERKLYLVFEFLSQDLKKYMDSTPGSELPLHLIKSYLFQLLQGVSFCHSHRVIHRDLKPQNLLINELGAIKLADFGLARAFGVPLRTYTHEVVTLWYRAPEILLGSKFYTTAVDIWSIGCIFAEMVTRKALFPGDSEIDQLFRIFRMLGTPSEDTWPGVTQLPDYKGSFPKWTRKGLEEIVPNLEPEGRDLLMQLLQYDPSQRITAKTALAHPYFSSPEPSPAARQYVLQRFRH
DNA topoisomerase 2-alpha, sequence (P11388 whole entry): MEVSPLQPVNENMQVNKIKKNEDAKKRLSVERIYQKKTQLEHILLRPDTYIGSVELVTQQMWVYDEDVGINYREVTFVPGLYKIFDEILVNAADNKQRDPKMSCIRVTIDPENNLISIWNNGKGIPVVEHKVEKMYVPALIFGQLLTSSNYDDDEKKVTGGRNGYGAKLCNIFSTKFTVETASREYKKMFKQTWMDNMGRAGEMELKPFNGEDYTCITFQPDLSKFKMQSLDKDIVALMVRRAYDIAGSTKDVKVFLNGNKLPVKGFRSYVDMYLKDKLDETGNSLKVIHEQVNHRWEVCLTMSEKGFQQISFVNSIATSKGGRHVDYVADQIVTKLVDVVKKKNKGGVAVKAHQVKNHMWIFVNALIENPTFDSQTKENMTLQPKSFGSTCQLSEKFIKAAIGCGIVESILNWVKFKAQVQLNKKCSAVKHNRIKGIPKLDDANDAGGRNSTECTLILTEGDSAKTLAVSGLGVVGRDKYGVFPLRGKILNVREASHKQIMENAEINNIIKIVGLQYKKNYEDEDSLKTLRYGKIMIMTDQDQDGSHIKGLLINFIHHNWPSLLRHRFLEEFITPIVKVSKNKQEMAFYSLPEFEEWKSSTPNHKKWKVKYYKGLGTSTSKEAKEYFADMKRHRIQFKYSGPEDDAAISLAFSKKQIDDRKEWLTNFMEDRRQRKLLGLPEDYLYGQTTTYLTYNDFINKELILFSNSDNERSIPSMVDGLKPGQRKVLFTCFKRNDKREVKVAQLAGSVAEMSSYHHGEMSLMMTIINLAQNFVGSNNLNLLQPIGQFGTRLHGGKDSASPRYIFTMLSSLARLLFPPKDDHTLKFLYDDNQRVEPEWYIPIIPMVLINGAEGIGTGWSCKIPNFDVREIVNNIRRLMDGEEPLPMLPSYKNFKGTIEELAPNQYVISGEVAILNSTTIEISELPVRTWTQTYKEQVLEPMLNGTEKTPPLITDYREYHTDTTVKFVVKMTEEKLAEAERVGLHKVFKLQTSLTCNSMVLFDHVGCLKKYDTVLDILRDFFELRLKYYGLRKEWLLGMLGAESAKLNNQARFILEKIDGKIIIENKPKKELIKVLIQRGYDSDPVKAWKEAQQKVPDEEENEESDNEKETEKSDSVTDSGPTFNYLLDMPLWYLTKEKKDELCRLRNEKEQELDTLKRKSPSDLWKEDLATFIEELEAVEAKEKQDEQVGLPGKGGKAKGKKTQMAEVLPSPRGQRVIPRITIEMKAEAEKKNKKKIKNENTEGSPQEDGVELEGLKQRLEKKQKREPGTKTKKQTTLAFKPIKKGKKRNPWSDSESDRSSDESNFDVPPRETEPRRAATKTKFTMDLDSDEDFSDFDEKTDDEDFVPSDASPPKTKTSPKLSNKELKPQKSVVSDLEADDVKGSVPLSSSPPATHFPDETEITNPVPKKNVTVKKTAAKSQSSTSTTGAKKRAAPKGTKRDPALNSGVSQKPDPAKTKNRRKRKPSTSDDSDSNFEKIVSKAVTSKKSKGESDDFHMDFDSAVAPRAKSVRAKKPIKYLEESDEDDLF

With `C[C@H]1CNCCCN1S(=O)(=O)c1cccc2cncc(F)c12`, the Kd in test [1], in test [2], in test [3], in test [4], in test [5] and in test [6] was > 30 µM (inactive) in each case. The Kd (usually the concentration at which binding is half-saturated) on Ephrin type-A receptor 1 is > 30 µM (inactive).
Regarding `Cc1nc2cc(-c3nn(C(C)C)c4ncnc(N)c34)ccc2o1`, the Kd (in test [7]; in test [2]; in test [3]; in test [4]; in test [6]; on Ephrin type-A receptor 1) was > 30 µM (inactive) each time.
For `Nc1ncnc2c1c(-c1cccc(OCc3ccccc3)c1)cn2[C@H]1C[C@@H](CN2CCC2)C1` [AEW-541], the Kd in test [7], in test [2], in test [3], in test [4], in test [5] and in test [6] was > 30 µM (inactive) each time. In addition, on Ephrin type-A receptor 1, the Kd is > 30 µM (inactive).
Take `NC(=O)Nc1cc(-c2cccc(F)c2)sc1C(=O)N[C@H]1CCCNC1` [AZD-7762]: the Kd in test [1] is > 30 µM (inactive); in test [7], > 30 µM (inactive); in test [2], 0.139 µM (active); in test [3], > 30 µM (inactive); in test [4], > 30 µM (inactive); in test [5], > 30 µM (inactive). For the same compound, the Kd in test [6] was > 30 µM (inactive).
Consider `CCn1c(C(=O)N(C2CC2)C2CC2)cc2c3c(ncn3C)c(Nc3cc(C)n(C)n3)nc21` [BMS-911543], for which the Kd in test [1], in test [2], in test [3], in test [4], in test [5] and in test [6] was > 30 µM (inactive) each time. Besides, at Ephrin type-A receptor 1, the Kd was > 30 µM (inactive).
For `O=C(Nc1nc2cccc(-c3ccc(CN4CCS(=O)(=O)CC4)cc3)n2n1)C1CC1` [FILGOTINIB], the Kd in test [1] is > 30 µM (inactive); in test [2] it was > 30 µM (inactive); in test [3], > 30 µM (inactive); in test [4] it was > 30 µM (inactive); in test [5], > 30 µM (inactive); in test [6] it was 2.03 µM (active). Besides, the Kd on Ephrin type-A receptor 1 is > 30 µM (inactive).
As to `CNC(=O)c1nn(C)c2c1C(C)(C)Cc1cnc(Nc3ccc(N4CCN(C)CC4)cc3)nc1-2` [MILCICLIB], the Kd is 0.995 µM (active) in test [1]; > 30 µM (inactive) in test [2]; 18.6 µM in test [3]; > 30 µM (inactive) in test [4]; 1.42 µM (active) in test [5]; > 30 µM (inactive) in test [6]. Besides, the Kd on Ephrin type-A receptor 1 is > 30 µM (inactive).
Regarding `Cn1cc(-c2cnc3ccc4ccc(CS(=O)(=O)NCc5ccccn5)cc4c(=O)c3c2)cn1` [MK-8033], the Kd in test [1], in test [2], in test [3], in test [4], in test [5] and in test [6] was > 30 µM (inactive) each time. For the same compound, the Kd at Ephrin type-A receptor 1 is > 30 µM (inactive).
For the compound `COc1ncc(-c2ccc3nccc(-c4ccnnc4)c3c2)cc1NS(=O)(=O)c1ccc(F)cc1F` [OMIPALISIB], the Kd in test [1], in test [7], in test [2], in test [3], in test [4] and in test [5] was > 30 µM (inactive) in each case. The Kd in test [6] was > 30 µM (inactive).
Consider `N#CC1(c2ccc(NC(=O)c3cccnc3NCc3ccncc3)cc2)CCCC1` [RIVOCERANIB], for which the Kd in test [1], in test [7], in test [3], in test [4], in test [5] and in test [6] was > 30 µM (inactive) throughout. For the same compound, the Kd at Ephrin type-A receptor 1 is > 30 µM (inactive).
Consider `CN1CCN(CCOc2cc(OC3CCOCC3)c3c(Nc4c(Cl)ccc5c4OCO5)ncnc3c2)CC1` [SARACATINIB], for which the Kd in test [1], in test [7], in test [2], in test [3], in test [4] and in test [5] was > 30 µM (inactive) throughout. Besides, in test [6], the Kd was > 30 µM (inactive).
Turning to `Cn1cc(-c2cnn3c(N)c(Br)c([C@@H]4CCCNC4)nc23)cn1` [SCH-900776], the Kd in test [1], in test [2], in test [3], in test [4], in test [5] and in test [6] was > 30 µM (inactive) in each case. In addition, on Ephrin type-A receptor 1, the Kd is > 30 µM (inactive).
As to `CO[C@H]1C[C@@H]2CC[C@@H](C)[C@@](O)(O2)C(=O)C(=O)N2CCCC[C@H]2C(=O)O[C@H]([C@H](C)C[C@@H]2CC[C@@H](O)[C@H](OC)C2)CC(=O)[C@H](C)/C=C(\C)[C@@H](O)[C@@H](OC)C(=O)[C@H](C)C[C@H](C)/C=C/C=C/C=C/1C` [SIROLIMUS], the Kd in test [1], in test [7], in test [3], in test [4], in test [5] and in test [6] was > 30 µM (inactive) each time. Further, the Kd on Ephrin type-A receptor 1 is > 30 µM (inactive).
In the case of `CCS(=O)(=O)c1cccc(-c2cc(C(=O)NC3CCN(C)CC3)c(C)c3[nH]c4ncc(C)cc4c23)c1` [TAK-901], the Kd in test [1] is > 30 µM (inactive); in test [2], > 30 µM (inactive); in test [3] it was > 30 µM (inactive); in test [4], > 30 µM (inactive); in test [5], 1.39 µM (active); in test [6], > 30 µM (inactive). For the same compound, the Kd at Ephrin type-A receptor 1 is > 30 µM (inactive).
In the case of `O=C1NC(=O)[C@@H](c2cn3c4c(cccc24)CCC3)[C@@H]1c1c[nH]c2ccccc12` [TIVANTINIB], the Kd in test [1], in test [7], in test [2], in test [3], in test [4] and in test [5] was > 30 µM (inactive) in each case. Also, the Kd in test [6] was > 30 µM (inactive).
In the case of `Cc1cc(Nc2ncnc3ccc(NC4=NC(C)(C)CO4)cc23)ccc1Oc1ccn2ncnc2c1` [TUCATINIB], the Kd in test [7], in test [2], in test [3], in test [4], in test [5] and in test [6] was > 30 µM (inactive) in each case. Besides, on Ephrin type-A receptor 1, the Kd is > 30 µM (inactive).
